Structures are written as SMILES.

One test has as its target T1, PDE4B1 (Homo sapiens, UniProt Q07343).
T1 construct: made in house; host or cells: SF21 insect cells (baculovirus; pCR-Bac vector)
Put plainly: Inhibition of PDE4B1 activity (SPA, [3H]cAMP). The conditions noted are these: recombinant PDE4B1 expressed in SF21 cells; 0.5 pM [sic] cAMP; values given as bins; read-out: PDE4B1 inhibitory values measured as −logIC50 (converted). Format: biochemical. Here is the method:
The PDE4B1 (GB no. L20966) was a gift of Prof. M. Conti (Stanford University, USA). It was amplified from the original plasmid (pCMV5) via PCR with primers Rb18 (5′-[…]-3′) and Rb10 (5′-[…]-3′) and cloned into the pCR-Bac vector (Invitrogen, Groningen, NL).
The recombinant baculovirus was prepared by means of homologous recombination in SF9 insect cells. The expression plasmids were cotransfected with Baculo-Gold DNA (Pharmingen, Hamburg) using a standard protocol (Pharmingen, Hamburg). Wt virus-free recombinant virus supernatants were selected using plaque assay methods. After that, high-titre virus supernatants were prepared by amplifying 3 times. PDE4B1 was expressed in SF21 cells by infecting 2×10^6 cells/ml with an MOI (multiplicity of infection) between 1 and 10 in the serum-free medium Insect Express Sf9-S2 (PAA, Pasching, Austria). The cells were cultured at 28° C. for 48-72 hours, after which they were pelleted for 5-10 min at 1000×g and 4° C.
The SF21 insect cells were resuspended, at a concentration of approx. 10^7 cells/ml, in ice-cold (4° C.) homogenization buffer (20 mM Tris, pH 8.2, containing the following additions: 140 mM NaCl, 3.8 mM KCl, 1 mM EGTA, 1 mM MgCl2, 10 mM e-mercaptoethanol, 2 mM benzamidine, 0.4 mM Pefablock, 10 pM leupeptin, 10 pM pepstatin A, 5 pM trypsin inhibitor) and disrupted by ultrasonication. The homogenate was then centrifuged for 10 min at 1000, g and the supernatant was stored at −80° C. until subsequent use (see below). The protein content was determined by the Bradford method (BioRad, Munich) using BSA as the standard.
PDEB1 activities were measured in a 96-well platform using SPA (scintillation proximity assay) yttrium silicate beads (RPNQ1050 from GE Healthcare). In a first step the PDE activity operates hydrolysis of either [^3H] cAMP (substrate) into [^3H] 5′AMP. In a second step substrate and product are distinguished following addition of SPA yttrium silicate beads. Indeed, in the presence of zinc sulphate the linear [^3H] […] Close proximity of bound [^3H] […] The test volume is 100 pl and contains 20 mM Tris buffer (pH 7.4), 0.1 mg/ml of BSA, 5 mM Mg^2+, […] (including about 50,000 cpm of [3H]cAMP), 1 pl of the respective substance dilution in DMSO and sufficient recombinant PDE (1000, g supernatant, see above) to ensure that 10-20% of the cAMP is converted under the said experimental conditions. […] After a preincubation of 5 min at 37° C., the reaction is started by adding the substrate (cAMP) and the assays are incubated for a further 15 min; after that, they are stopped by adding SPA beads (50 pl). In accordance with the manufacturer's instructions, the SPA beads had previously been resuspended in water, but were then diluted 1:3 (v/v) in water; the diluted solution also contains 3 mM IBMX to ensure a complete PDE activity stop. After the beads have been sedimented (>30 min), the MTP's are analyzed in commercially available luminescence detection devices. The corresponding IC50 values of the compounds for the inhibition of PDE4B1 activity are determined from the concentration-effect curves by means of non-linear regression.

The target in another test is T2, human PDE5 (Homo sapiens, UniProt O76074).
T2 construct: from tissue; host or cells: human platelets from fresh donor blood (10,000 g supernatant of sonicated platelets)
Put plainly: Inhibition of PDE5 activity (SPA, [3H]cGMP, platelet lysate). It is filed as biochemical. The conditions noted are these: PDE5 from human platelet lysate; values given as bins; read-out: PDE5A inhibitory values measured as −logIC50 (converted). Here is the method: As a source for human PDE5, platelets are used. For that purpose, 150 ml fresh blood from human donors anticoagulated with citrate [final concentration 0.3% (w/v)] is centrifuged at 200 g for 10 min to obtain the so-called platelet-rich-plasma (PRP) as a supernatant. 1/10 volume of ACD solution (85 mM Na3-citrate, 111 mM D-glucose, 71 mM citric acid, pH 4.4) is added to 9/10 volume of PRP. After centrifugation (1,400 g, 10 min) the cell pellet is resuspended in 3 ml homogenization buffer (NaCl 140 mM, KCl 3.8 mM, EGTA (ethylene glycol tetraacetic acid) 1 mM, MgCl2 1 mM, Tris-HCl 20 mM, beta-mercaptoethanol 1 mM, pH 8.2) plus protease-inhibitor mix giving rise to the final concentrations of 0.5 mM Pefablock (Roche), 10 μM Leupeptin, 5 μM Trypsininhibitor, 2 mM Benzamidin and 10 μM Pepstatin A. The suspension is sonified and thereafter centrifuged for 15 min at 10,000 g. The resulting supernatant (platelet lysate) is used for enzymatic testings.
PDE5 activities were measured in a 96-well platform using SPA (scintillation proximity assay) yttrium silicate beads (RPNQ1050 from GE Healthcare). In a first step the PDE activity operates hydrolysis of either [^3H] cGMP (substrate) into [^3H] 5′GMP. In a second step substrate and product are distinguished following addition of SPA yttrium silicate beads. Indeed, in the presence of zinc sulphate the linear [^3H] […] Close proximity of bound [^3H] […] The test volume is 100 pl and contains 20 mM Tris buffer (pH 7.4), 0.1 mg of BSA (bovine serum albumin)/ml, 5 mM Mg^2+, 1 μM motapizone (PDE3 Inhibitor), 10 nM PDE2 inhibitor 2-(3,4-dimethoxybenzyl)-7-[(1R,2R)-2-hydroxy-1-(2-phenylethyl)propyl]-5-methylimidazo[5,1-f][1,2,4]triazin-4(3H)-one, […] (cyclic guanosine monophosphate) (including about 50,000 cpm of [3H]cGMP as a tracer), 1 pl of the respective compound dilution in dimethylsulfoxide (DMSO) and sufficient PDE5-containing platelet lysat (10,000, g supernatant, see above) to ensure that 10-20 wt % of the cGMP is converted under the said experimental conditions. […] After a preincubation of 5 min at 37° C., the reaction is started by adding the substrate (cGMP) and the assay is incubated for a further 15 min; after that, it is stopped by adding SPA beads (50 pl). In accordance with the manufacturer's instructions, the SPA beads had previously been resuspended in water, but are then diluted 1:3 (v/v) in water; the diluted solution also contains 3 mM […]3-isobutyl-1-methylxanthine (IBMX) to ensure a complete PDE activity stop. After the beads have been sedimented (>30 min), the MTP's are analyzed in commercially available luminescence detection devices. The corresponding IC50 values of the compounds for the inhibition of PDE activity are determined from the concentration-effect curves by means of non-linear regression.

T1 sequence (Q07343 whole entry): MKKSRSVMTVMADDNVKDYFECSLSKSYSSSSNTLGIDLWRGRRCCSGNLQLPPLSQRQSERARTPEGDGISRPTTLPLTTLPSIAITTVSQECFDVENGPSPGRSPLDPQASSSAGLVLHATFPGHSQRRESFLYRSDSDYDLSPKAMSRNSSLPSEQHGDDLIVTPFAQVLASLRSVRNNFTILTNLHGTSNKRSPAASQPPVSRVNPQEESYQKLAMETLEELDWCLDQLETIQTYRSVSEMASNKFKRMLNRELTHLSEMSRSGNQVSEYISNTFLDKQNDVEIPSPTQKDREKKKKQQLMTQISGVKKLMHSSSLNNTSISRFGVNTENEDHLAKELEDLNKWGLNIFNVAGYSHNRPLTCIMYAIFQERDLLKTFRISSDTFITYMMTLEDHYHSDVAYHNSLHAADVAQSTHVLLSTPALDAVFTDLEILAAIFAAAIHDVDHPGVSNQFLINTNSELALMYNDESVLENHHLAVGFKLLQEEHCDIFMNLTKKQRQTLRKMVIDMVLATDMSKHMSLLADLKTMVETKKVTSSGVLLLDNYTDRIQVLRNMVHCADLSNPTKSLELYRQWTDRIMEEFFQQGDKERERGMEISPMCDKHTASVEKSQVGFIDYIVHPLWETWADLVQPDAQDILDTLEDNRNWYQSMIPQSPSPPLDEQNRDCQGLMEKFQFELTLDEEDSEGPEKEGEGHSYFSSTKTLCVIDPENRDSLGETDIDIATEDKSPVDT

Take `CCOc1cc2c(cc1OC)C(c1cccc(C(=O)N3CCC(n4c(=O)c5sc(-c6ccccc6F)cc5n(Cc5nnn(CC)n5)c4=O)CC3)c1)=N[C@@H]1CCSC[C@H]21` [Example 39]: the results for the IC50 at PDE4B1 and at human PDE5 were 1 to 10 nM and under 10 nM, respectively.
On the same counts, the results for `CCOc1cc2c(cc1OC)C(c1ccc(C(=O)N3CCC(n4c(=O)c5sc(-c6cc(OC)ccc6OC)cc5n(Cc5nnn(CC)n5)c4=O)CC3)cc1)=N[C@@H]1CCSC[C@H]21` [Example 36, 6-(2,5-dimethoxyphenyl)-3-[1-({4-[(4aR,10bR)-9-ethoxy-8-methoxy-3,4,4a,10b-tetrahydro-1H-thiopyrano[4,3-c]isoquinolin-6-yl]phenyl}carbonyl)piperidin-4-yl]-1-[(2-ethyl-2H-tetrazol-5-yl)methyl]thieno[3,2-d]pyrimidine-2,4(1H,3H)-dione] are over 10 nM and under 10 nM.
Taken in the same sequence, the figures for `CCOc1cc2c(cc1OC)C(c1cccc(C(=O)N3CCC(n4c(=O)c5sc(-c6ccccc6)cc5n(Cc5nc(CC)no5)c4=O)CC3)c1)=N[C@@H]1CCSC[C@H]21` [Example 27, 3-[1-({3-[(4aR,10bR)-9-ethoxy-8-methoxy-3,4,4a,10b-tetrahydro-1H-thiopyrano[4,3-c]isoquinolin-6-yl]phenyl}carbonyl)piperidin-4-yl]-1-[(3-ethyl-1,2,4-oxadiazol-5-yl)methyl]-6-phenylthieno[3,2-d]pyrimidine-2,4(1H,3H)-dione] were 1 to 10 nM and under 10 nM.
Regarding `CCOc1cc2c(cc1OC)C(c1ccc(C(=O)N3CCC(n4c(=O)c5sc(-c6ccccc6)cc5n(Cc5nnn(CC)n5)c4=O)CC3)cc1)=N[C@@H]1CCS(=O)(=O)C[C@H]21` [Example 19, 3-[1-({4-[(4aR,10bR)-9-ethoxy-8-methoxy-2,2-dioxido-3,4,4a,10b-tetrahydro-1H-thiopyrano[4,3-c]isoquinolin-6-yl]phenyl}carbonyl)piperidin-4-yl]-1-[(2-ethyl-2H-tetrazol-5-yl)methyl]-6-phenylthieno[3,2-d]pyrimidine-2,4(1H,3H)-dione], the values for the IC50 on PDE4B1 and on human PDE5 were over 10 nM and under 10 nM, respectively.
Taken in the same sequence, the figures for `CCOc1cc2c(cc1OC)C(c1ccc(C(=O)N3CCC(n4c(=O)c5sc(-c6ccc7c(c6)OCO7)cc5n(Cc5nnn(CC)n5)c4=O)CC3)cc1)=N[C@@H]1CCSC[C@H]21` [Example 30, 6-(1,3-benzodioxol-5-yl)-3-[1-({4-[(4aR,10bR)-9-ethoxy-8-methoxy-3,4,4a,10b-tetrahydro-1H-thiopyrano[4,3-c]isoquinolin-6-yl]phenyl}carbonyl)piperidin-4-yl]-1-[(2-ethyl-2H-tetrazol-5-yl)methyl]thieno[3,2-d]pyrimidine-2,4(1H,3H)-dione] were 1 to 10 nM and under 10 nM.
On the same counts, the results for `CCOc1cc2c(cc1OC)C(c1ccc(C(=O)N3CCC(n4c(=O)c5sc(-c6cccc(F)c6F)cc5n(Cc5nnn(CC)n5)c4=O)CC3)cc1)=N[C@@H]1CCSC[C@H]21` [Example 42, 6-(2,3-difluorophenyl)-3-[1-({4-[(4aR,10bR)-9-ethoxy-8-methoxy-3,4,4a,10b-tetrahydro-1H-thiopyrano[4,3-c]isoquinolin-6-yl]phenyl}carbonyl)piperidin-4-yl]-1-[(2-ethyl-2H-tetrazol-5-yl)methyl]thieno[3,2-d]pyrimidine-2,4(1H,3H)-dione] are over 10 nM and 10 to 100 nM.
Taken in the same sequence, the figures for `CCOc1cc2c(cc1OC)C(c1ccc(C(=O)N3CCC(n4c(=O)c5sc(-c6ccccc6)cc5n(Cc5cn(CC)nn5)c4=O)CC3)cc1)=N[C@@H]1CCSC[C@H]21` [Example 23, 3-[1-({4-[(4aR,10bR)-9-ethoxy-8-methoxy-3,4,4a,10b-tetrahydro-1H-thiopyrano[4,3-c]isoquinolin-6-yl]phenyl}carbonyl)piperidin-4-yl]-1-[(1-ethyl-1H-1,2,3-triazol-4-yl)methyl]-6-phenylthieno[3,2-d]pyrimidine-2,4(1H,3H)-dione] were 1 to 10 nM and over 100 nM.
For `CCOc1cc2c(cc1OC)C(c1cccc(C(=O)N3CCC(n4c(=O)c5sc(-c6ccc(F)cc6)cc5n(Cc5nnn(CC)n5)c4=O)CC3)c1)=N[C@@H]1CCSC[C@H]21` [Example 41, 3-[1-({3-[(4aR,10bR)-9-ethoxy-8-methoxy-3,4,4a,10b-tetrahydro-1H-thiopyrano[4,3-c]isoquinolin-6-yl]phenyl}carbonyl)piperidin-4-yl]-1-[(2-ethyl-2H-tetrazol-5-yl)methyl]-6-(4-fluorophenyl)thieno[3,2-d]pyrimidine-2,4(1H,3H)-dione], the IC50 was over 10 nM at PDE4B1 and under 10 nM at human PDE5.
Taken in the same sequence, the figures for `CCOc1cc2c(cc1OC)C(c1ccc(C(=O)N3CCC(n4c(=O)c5sc(-c6ccccc6)cc5n(Cc5nnn(COC)n5)c4=O)CC3)cc1)=N[C@@H]1CCSC[C@H]21` [Example 28, 3-[1-({4-[(4aR,10bR)-9-ethoxy-8-methoxy-3,4,4a,10b-tetrahydro-1H-thiopyrano[4,3-c]isoquinolin-6-yl]phenyl}carbonyl)piperidin-4-yl]-1-{[2-(methoxymethyl)-2H-tetrazol-5-yl]methyl}-6-phenylthieno[3,2-d]pyrimidine-2,4(1H,3H)-dione] were under 1 nM and under 10 nM.

(Values after patent US9018175B2 (Takeda GmbH, priority 2009, dated 2015).)
